In US20080227813A1, “Pharmaceutical compositions and methods for treating diseases associated with neurodegeneration” (priority 2006, published 2008):

Legend:
CRL:(WI)BR rats [1] = test: Acute oral toxicity in rats; format: in vivo; details: rat
Experimental: All animal toxicology studies were performed at Toxicological Research Centre (Veszprém, Hungary) using protocols compliant with OECD guidelines and Principles of Good Laboratory Practice. Following is a summary of the studies conducted.
Acute oral toxicity studies were performed in rats (CRL(WI:)BR) and in mice (CRL: NMRI BR). A control and five dose groups were involved in the rat study at dose levels of 2000 mg/kg, 2600 mg/kg, 3400 mg/kg, 4400 mg/kg and 5700 mg/kg (equal to 1241 mg/kg, 1613 mg/kg, […], 2729 mg/kg and 3535 mg/kg free base, n=5 animals/sex/group).

CRL(:WI)BR rats = test: 28-day repeated dose oral toxicity study in rats; format: in vivo, rat; details: for No observed adverse effect level (NOAEL): rat male and female, 28-day oral
Experimental: To assess recovery post treatment, an additional 5 males and females were included in both the control and highest dosage groups. Treatment was carried out by gavage once daily. Control animals were treated with physiologic saline in the same way.
Pre-treatment: general condition and behavior activity patterns were observed. Also in a subgroup of 5 male and 5 female animals, hematological and clinical chemistry tests were performed.
During the treatment period and following a two-week recovery period the clinical observations were made daily. At weekly intervals body weight and food consumption were measured.
At the end of the treatment, hematological, clinical chemistry evaluation and gross necropsy with organ weight assessment were conducted. […] In addition, the liver and kidneys and the organs showing macroscopic changes were examined microscopically in the low and middle dose groups, too.

Beagle dogs [2] = test: 14-day repeated dose oral toxicity study in Beagle dogs; format: in vivo; details: dog, 210 mg/kg/day oral, 14 days
Experimental: The control animals were treated in the same way with placebo gelatin capsules.
The checks of mortality were done twice daily. The clinical observations were performed at least twice daily and the weighing of non-consumed food was done daily. The body weights of the animals were measured once a week. The hematological, clinical chemical and ECG investigations, urinalysis and the opthalmological examinations were performed prior to the treatment and at the end of the treatment period. Terminally gross necropsy and histopathological examinations were performed according to the study plan.

[3] = dog, in vivo
Beagle dogs [4] = test: 28-day repeated dose oral toxicity study in dogs; format: in vivo, dog; details: for No observed adverse effect level (NOAEL): Beagle dogs male and female, 28-day oral
Experimental: The control animals were treated in the same manner with placebo gelatin capsules.
Pre-treatment: hematological, clinical chemistry and ECG investigations and opthalmoscopic examinations were performed.
During the treatment period: check of mortality and clinical observation were performed at least twice daily and weighing the non-consumed food was performed daily. The body weights of animals were measured once a week. At the end of the treatment, hematological laboratory and ECG investigations, opthalmoscopic examinations, gross necropsy, histopathological and histometrical examinations were performed.

CRL:(WI)BR rats [5] = test: Acute intravenous toxicity in rats; format: in vivo; details: rat
Experimental: A control and five dose groups were involved in the rat study at dose levels of 150 mg/kg, 200 mg/kg, 250 mg/kg, 300 mg/kg and 350 mg/kg (equal to 93 mg/kg, 124 mg/kg, 155 mg/kg, 186 mg/kg and 217 mg/kg free base, n=5 animals/sex/group).

[6] = rat, in vivo
Experimental: The pharmacokinetic properties of total radioactivity were studied in male and female Wistar rats at the dose of 25.8 mg/kg ^14C labeled Compound I (equal to 16 mg/kg free base) administered intravenously and orally (Study B: Compound I/PRE SK-007). The concentrations of total radioactivity were monitored by liquid scintillation counting and whole-body autoradiographic methods in serum, organs, tissues, and excreta. All parts of the study were performed in both sexes (n=5 in both sexes).

mSOD1^(G93A) mice = test: Lifespan and disease progression in mSOD1(G93A) ALS mice; format: in vivo, mouse
Experimental: Nat. Med. 10(4), p. 345-7 (2004), which is incorporated by reference.
Thus, Compound I-treated mice lived an average of 153 days (±2.6 SEM, n=7). This represents a significant increase in lifespan of over 22% (p=<0.001). The effect of beginning Compound I treatment at the time of disease onset was also tested by starting treatment at 70 days of age, when the first signs of locomotor defects are observed. Compound I treatment from 70 days of age extended the mean lifespan of mSOD1^(G93A) mice by 23 days, from 125 days (±1.8 SEM, n=18) in the untreated group to 148 days (±1.5 SEM, n=5) in the treated group. This represents an increase in lifespan of 18% (p=<0.001).

[7] = dog, 70-210 mg/kg/day oral, 28 days
[8] = treatment from 70 days of age, vs untreated
[9] = 69 assigned to treatment, 100 mg tid, 6 months
[10] = number of patients, open-label 100 mg tid
[11] = vs placebo cohort of the Celebrex® study (historical control)

Experimental for patients with ALS: An open label extension study was conducted in patients from Example 23 who completed 12 weeks of treatment and a Week 16 Follow-up Visit. Subjects received 100 mg tid Compound I daily for approximately six months. Visits occurred at Screening, Baseline, and once a month for six months (total of 8 visits). A telephone call at Month 7 ended subject participation in the study.
Disease Progression: There are four main indicators of disease progression that can be measured accurately in these time frames; ALSFRS-R, % VC, weight, and body mass index. The analysis assumed that any subject who dropped out (or died) had the worst possible outcome, based on an analysis by Finkelstein and Schoenfeld (Stat. Med. 1999 18:1341-54). This non-parametric analysis orders outcomes so that subjects who dropped out (or died) were considered to have a worse outcome than subjects who lived. For comparison these characteristics for the placebo group in the Celebrex® trial are included.

[O-][n+]1cccc(/C(Cl)=N/OC[C@H](O)CN2CCCCC2)c1 [Compound I, N-[2-hydroxy-3-(1-piperidinyl)-propoxy]-pyridine-1-oxide-3-carboximidoyl chloride]
Oral LD50 value (CRL:(WI)BR rats [1]; female, by base): 1977 - by base mg/kg | Oral LD50 value (CRL:(WI)BR rats [1]; female, by citrate): 3188 - by citrate mg/kg | Oral LD50 value (CRL:(WI)BR rats [1]; male, by base): 1754 (1425-2146) - by base mg/kg | Oral LD50 value (CRL:(WI)BR rats [1]; male, by citrate): 2828 (2297-3460) - by citrate mg/kg | No observed adverse effect level (NOAEL) (CRL(:WI)BR rats; by base): 233 mg/kg/day | No observed adverse effect level (NOAEL) (CRL(:WI)BR rats; by citrate): 375 mg/kg/day | mortality (CRL(:WI)BR rats; rat, 375, 750, 1500 mg/kg/day oral, 28 days): No deaths occurred | ECG or ophthalmological alterations (Beagle dogs [2]): no direct treatment related ECG or opthalmological alterations | clinical signs (Beagle dogs [2]): decreased activity, tremor, ptosis, salivation, increased muscle tone, vomiting and thin feces | liver histopathology (Beagle dogs [2]): moderate degree proliferation of cells belonging to the mononuclear phagocyte system (MPS) of the liver | mortality (Beagle dogs [2]): no death occurred | major elimination route [3]: eliminated with urine | AUC of radioactivity relative to parent compound ([3]; iv): about 8 times | central volume of distribution Vc ([3]; iv, 6.45 mg/kg): 1.50 ± 0.5 L/kg | first apparent elimination half-life ([3]; iv, 6.45 mg/kg): 19.8 ± 30.6 min | second apparent elimination half-life ([3]; iv, 6.45 mg/kg): 75.6 ± 12 min | mean AUC of radioactivity relative to parent compound ([3]; po): about 10 times | peak concentration of radioactivity relative to Compound I ([3]; po): 1.7 times | radioactivity concentration at two weeks ([3]; po): 0.014±0.004 μgE/ml | serum radioactivity at 12 h, share of peak ([3]; po): about 15% | absorption half-life ([3]; po, 6.45 mg/kg): 22.8 min | oral bioavailability ([3]; po, 6.45 mg/kg): 77% | oral bioavailability of total radioactivity ([3]; po, 6.45 mg/kg): 104% | peak concentration ([3]; po, 6.45 mg/kg): 0.94 ± 0.37 µg/mL | start of absorption after dosing ([3]; po, 6.45 mg/kg): 15 to 120 min | time of peak concentration ([3]; po, 6.45 mg/kg): 1 to 2 h | No observed adverse effect level (NOAEL) (Beagle dogs [4]; by base): 43.4 mg/kg/day | No observed adverse effect level (NOAEL) (Beagle dogs [4]; by citrate): 70 mg/kg/day | ECG and ophthalmologic alterations (Beagle dogs [4]; [7]): did not cause ECG and opthalmologic alterations | mortality (Beagle dogs [4]; [7]): No deaths occurred | Intravenous LD50 value (CRL:(WI)BR rats [5]; female, by base): 215 (190-764) by base mg/kg | Intravenous LD50 value (CRL:(WI)BR rats [5]; female, by citrate): 346 (306-1232) by citrate mg/kg | Intravenous LD50 value (CRL:(WI)BR rats [5]; male, by base): 197 (168-301) by base mg/kg | Intravenous LD50 value (CRL:(WI)BR rats [5]; male, by citrate): 317 (271-485) by citrate mg/kg | dose eliminated with bile [6]: 20-30 % of dose | dose remaining in the rats [6]: ~20% | radioactivity by 3rd post-treatment hour, share of first measured concentration ([6]; iv, 25.8 mg/kg): 20% | organ radioactivity at 4th hour, share of 45 min values ([6]; po): 20-60% | penetration through the blood-brain barrier ([6]; po): weak penetration through the blood-brain barrier | increase of radioactivity in organs and tissues ([6]; po, 25.8 mg/kg): 4-12 fold | time of first maximal serum concentration of radioactivity ([6]; po, 25.8 mg/kg): ≤ 1 h | total exposure of last day (0-24 h AUD) vs first day ([6]; po, 25.8 mg/kg): more than two times higher | average lifespan (mSOD1^(G93A) mice; 10 mg/kg ip daily from 35 days of age, untreated 125 days): 153 days | mean lifespan (mSOD1^(G93A) mice; 10 mg/kg ip daily from 70 days of age, untreated 125 days): 148 days | progression of disease (mSOD1^(G93A) mice; ALS transgenic mouse model): significantly delayed the progression of disease | extension of survival (mSOD1^(G93A) mice; given pre-symptomatically and at disease onset, study rationale statement): five weeks | increase in lifespan (mSOD1^(G93A) mice; treatment from 35 days of age, vs untreated): over 22% | extension of mean lifespan (mSOD1^(G93A) mice; [8]): 23 days | increase in lifespan (mSOD1^(G93A) mice; [8]): 18% | safety and tolerability (patients with ALS; 6 month dosing): safe and well tolerated | % Early Study Medication Discontinuation (patients with ALS; [9]): 11.6% | Completed Trial on Treatment (patients with ALS; [9]): 61 | Early Study Medication Discontinuation (patients with ALS; [9]): 8 | treatment discontinuation: Adverse Event (patients with ALS; [10]): 1 | treatment discontinuation: Death (patients with ALS; [10]): 1 | treatment discontinuation: Other Reasons (patients with ALS; [10]): 0 | treatment discontinuation: Reason not listed (patients with ALS; [10]): 0 | treatment discontinuation: Withdrew Consent (patients with ALS; [10]): 6 | # Early Study Medication Discontinuations per Month (patients with ALS; over 6-months): 1.33 | rate of ALSFRS-R decline (patients with ALS; patients co-administered with riluzole vs without): no apparent difference | progression of Vital Capacity (VC) (patients with ALS; patients treated with riluzole in addition to Compound I vs those not treated with riluzole): appeared to progress more slowly | change in serum creatinine levels (patients with ALS; screening vs 6-month): no significant change | slower decline by % VC (patients with ALS; [11]): 7.6% | slower decline by ALSFRS-R (patients with ALS; [11]): 21.4% | slower decline by BMI (patients with ALS; [11]): 20.4% | slower decline by weight (patients with ALS; [11]): 22.8%
